# Literature values, collected in US9918986B2, “Methods and compounds for preventing osteoarthritis” (UNIVERSITY COLLEGE CARDIFF CONSULTANTS LIMITED, priority 2013, dated 2018).
# How the values were obtained:
# AMPA receptor = conditions: cited from earlier work
# Kainate receptor = conditions: cited from earlier work
# human RA FLS = conditions: cited from earlier work
# IL-6 receptor = target: T1, IL-6 receptor (Homo sapiens, UniProt P08887); conditions: RA patients; cited from earlier work
# T1 construct: host or cells: RA patients (endogenous receptor)
# T1 sequence (P08887 20-468): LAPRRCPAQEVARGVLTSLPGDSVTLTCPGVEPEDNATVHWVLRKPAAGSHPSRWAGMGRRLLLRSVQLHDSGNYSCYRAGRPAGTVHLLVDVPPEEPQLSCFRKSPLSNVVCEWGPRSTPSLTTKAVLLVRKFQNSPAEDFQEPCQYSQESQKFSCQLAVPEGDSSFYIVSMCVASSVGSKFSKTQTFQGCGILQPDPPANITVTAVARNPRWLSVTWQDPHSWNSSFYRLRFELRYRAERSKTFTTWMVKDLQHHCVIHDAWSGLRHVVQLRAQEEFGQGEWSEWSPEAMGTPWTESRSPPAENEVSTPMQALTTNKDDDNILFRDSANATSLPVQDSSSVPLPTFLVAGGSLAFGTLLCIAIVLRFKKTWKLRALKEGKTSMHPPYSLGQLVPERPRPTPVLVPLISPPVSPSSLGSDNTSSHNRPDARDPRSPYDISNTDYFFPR
# rodent arthritis = conditions: oral administration, cited from earlier work
Compound,AMPA receptor antagonist (AMPA receptor),Kainate receptor antagonist (Kainate receptor),other results
Cc1cn(C[C@H](N)C(=O)O)c(=O)n(Cc2cc(-c3ccccc3)sc2C(=O)O)c1=O [ACET],No,Yes,
"COc1cc2c(cc1OC)C(c1ccc(N)cc1)=NNC(=O)C2 [CFM-2, 1-(4′-Aminophenyl)-3,5-dihydro-7,8-dimethoxy-4H-2,3-benzodiazepin-4-one]",Yes,No,MMP-2 expression by FLS (human RA FLS): did not affect
tocilizumab: anti-IL-6 receptor inhibitor,,,synovitis and radiographic changes (IL-6 receptor): significantly improves
C[C@]12N[C@H](Cc3ccccc31)c1ccccc12 [MK801],,,proMMP-2 release (human RA FLS; RA FLS): significantly increased
O=C(O)[C@@H]1C[C@H]2C[C@@H](CCc3nn[nH]n3)CC[C@H]2CN1 [Tezampanel],Yes,Yes,
O=C(O)c1cc(=O)c2ccccc2[nH]1 [Kynurenic acid],Yes,Yes,
O=C1Nc2c(cc([N+](=O)[O-])c3c2CCCC3)C1=NO [NS-102],Weak,Yes,
"CCNC(=O)CC[C@H](N)C(=O)O [L-Theanine, gamma-glutamylethylamide or 5-N-ethyl-glutamine]",Yes,Yes,
"N#Cc1cc2c(cc1[N+](=O)[O-])=NC(=O)C(=O)N=2 [CNQX, 6-cyano-7-nitroquinoxaline-2,3-dione]",Yes,Yes,
"NCCCNCCCCNCCCNC(=O)Cc1cccc2ccccc12 [1-NAS, 1-naphthyl acetyl sperm me]",Yes,No,
NC(CCCP(=O)(O)O)C(=O)O [D-AP5],,,MMP-2 expression by FLS (human RA FLS): did not affect
"O=C1N=c2cc([N+](=O)[O-])c([N+](=O)[O-])cc2=NC1=O [DNQX, 6,7-dinitroquinoxaline-2,3-dione]",Yes,Yes,
"CC1=NN=C(c2ccc(N)cc2)c2cc3c(cc2C1)OCO3 [GYKI52466, 4-(8-Methyl-9H-1,3-dioxolo[4,5-h][2-,3]benzodiazepin-5-yl)-benzenamine]",Yes,Yes,"body weight loss (rodent arthritis): attenuated; hyperalgesia (rodent arthritis): attenuated; primary oedema on the right paw (rodent arthritis): no effect; secondary, generalized inflammation-induced swelling of the left paw (rodent arthritis; second phase of chronic disease): no effect"
